# In US20100272853A1, “Method of Increasing the Milk and/or Meat Quantity of Silage-Fed Animals” (BASF SE, priority 2007, published 2010):
# How the values were obtained:
# Format in all cases: in vivo
# [1] = test system: corn; assay: Strip field trials Wisconsin 2006: corn forage quality by NIRS and MILK 2006 calculated milk production
# Method: (§1) Field trials were conducted as strip trials in farm fields in 2006 and 2008. A part of the field was treated with pyraclostrobin applied as Headline® whereas another part was left untreated. Headline® was applied at tassel emergence with 0.44 L/ha (110 g pyraclostrobin per ha) by aerial or ground application with a high clearance sprayer. Total spray volume was 93.5 to 187 L/ha for ground application and 18.7 to 46.7 L/ha for aerial application, respectively. Water was used as a carrier to prepare the spray mixture.
# (§2) Trials were harvested using a commercial forage harvester when the corn crop reached a dry matter content of about 30 to 40%. The treated and untreated area of the field was harvested separately to gain total biomass yield (ton/acre). Subsequently, the harvested plant material was used for producing silage.
# (§3) Forage samples from the harvested plants were taken from both the treated and untreated areas of the field. Samples were taken from the harvested material in the forage wagon following chopping with the commercial harvester. Multiple forage samples were taken for each of both treatments manually during harvesting in each of the trials, mixed in a larger container, and a subsample of 1.3 to 2.25 kg was taken. The subsamples were placed in plastic bags, sealed, cooled, and shipped immediately to Agsource Soil and Forage Laboratory, 106 North Cecil Street, Bonduel Wis. 54107, USA for Near Infrared Reflectance Spectroscopy (NIRS) analysis.
# (§4) Typically, samples for NIRS analysis are first dried at 55 to 65° C. for 24 h to 48 h prior to analysis. A representative subsample thereof is then dried at 105° C. for another 12 h to 24 h to evaluate the dry matter content of the samples. Subsequently, the remaining sample is grinded and homogenized and again a representative subsample is used for the NIRS analysis. The NIRS analysis procedure uses a commercially available calibration to estimate the values for each quality parameter based on the spectral reflectance information gained. The calibrations are based on the near infra red reflectance spectra of samples with known quality data. The comparison of the spectra of the samples with unknown quality data with the spectra of the known samples allows calculating estimates for each quality parameter of interest.
# (§5) NIRS analysis provided dry matter, crude protein, Acid Detergent Fibre (ADF), Neutral Detergent Fibre (NDF), and starch data. Calculations were included for moisture, adjusted crude protein, Total Digestible Nutrients (TDN), Net Energy for Lactation (NEL), Net Energy for Gain (NEG) and protein solubility.
# (§6) The information was then entered into the MILK 2006 University of Wisconsin Corn Silage evaluation system. Calculations of the milk production, energy content and digestibility per ton of corn biomass were carried out using a calculation method described in:
# (§7) a) Schwab, E. C., and R. D. Shaver. 2001: “Evaluation of corn silage nutritive value using MILK2000” (pages 21-24) in Proc. of 25th Forage Production and Use Symposium. WI Forage Council Annual Mtg. Eau Claire, Wis. b) Schwab, E. C., R. D. Shaver. J. G. Lauer, and J. G. Coors. 2003: “Estimating silage energy value and milk yield to rank corn hybrids”. J. Anim. Feed Sci. Technol. 109: 1-18. as well as in c) Undersander, D. J., W. T. Howard, and R. D. Shaver. 1993: “Milk per acre spreadsheet for combining yield and quality into a single term”. J. Prod. Ag. 6: 231 235.
# In 2006 a total of 7 strip trials were conducted in Manitowoc County, Wis. Trial setup, treatments, application, harvesting, sampling and quality analysis including calculation of milk production per ton and per acre followed the procedure described before.
# [2] = test system: corn hybrids; assay: Field trial Wisconsin 2008 with eight corn hybrids: calculated milk production per ton of harvested biomass; details: for Calculated milk production, Milk (kg/t): Unity, Wis., 2008
# Method: as §1, §2, §3, §4, §5, §6, §7
# Eight different corn hybrid varieties were tested in a field trial in Unity, Wis., in 2008. Trial setup, application, harvesting, sampling and quality analysis including calculation of milk production per ton followed the procedure described before. Each hybrid was either treated with pyraclostrobin as described before or untreated. The quality data was converted into milk production per ton of harvested biomass for each hybrid as described above.
# [3] = test system: corn; assay: Strip field trials Maryland 2006: corn forage quality by NIRS and MILK 2006 calculated milk production
# Method: as §1, §2, §3, §4, §5, §6, §7
# In 2006 a total of 16 strip trials were conducted in Queen Ann County, MD. Trial setup, treatments, application, harvesting, sampling and quality analysis including calculation of milk production per ton and per acre followed the procedure described before.
# [4] = test system: corn; assay: Strip field trials New York 2006: corn forage quality by NIRS and MILK 2006 calculated milk production
# Method: as §1, §2, §3, §4, §5, §6, §7
# In 2006 a total of 2 strip trials were conducted in Waterloo, N.Y. Trial setup, treatments, application, harvesting, sampling and quality analysis including calculation of milk production per ton and per acre followed the procedure described before.
# [5] = Wis. 2006, vs untreated part of field
# [6] = average of 7 strip trials, Wis. 2006, 110 g pyraclostrobin per ha at tassel emergence
# [7] = Example 4.5, hybrid N27B CBLLRW
# [8] = MD 2006, vs untreated part of field
# [9] = average of 16 strip trials, MD 2006, 110 g pyraclostrobin per ha at tassel emergence
# [10] = N.Y. 2006, vs untreated part of field
# [11] = average of 2 strip trials, N.Y. 2006, 110 g pyraclostrobin per ha at tassel emergence
smiles,measurement,setting,value
"COC(=O)N(OC)c1ccccc1COc1ccn(-c2ccc(Cl)cc2)n1 [Pyraclostrobin, pyraclostrobin]","% CP, % Difference to Untreated",[1]; [5],+4.2%
same,"% NDFD, % Difference to Untreated",[1]; [5],+13.2%
same,"% Starch, % Difference to Untreated",[1]; [5],+13.7%
same,"Milk (kg/t), % Difference to Untreated",[1]; [5],+14.0%
same,"% ADF, % Difference to Untreated","[1]; Wis. 2006, vs untreated part of field, decrease means more digestibility",−16.2%
same,"% NDF, % Difference to Untreated","[1]; Wis. 2006, vs untreated part of field, decrease means more energy content",−13.4%
same,crude protein content (% CP),"[1]; average of 7 strip trials, Manitowoc County, Wis., 2006, 110 g pyraclostrobin per ha at tassel emergence",7.5%
same,acid detergent fiber content (% ADF),[1]; [6],22.2%
same,in vitro 48-hour digestible NDF expressed as percent of NDF (% NDFD),[1]; [6],67.6%
same,neutral detergent fiber content (% NDF),[1]; [6],39.5%
same,starch content (% Starch),[1]; [6],37.4%
same,calculated value for milk produced per ton of silage (Milk (kg/t)),"[1]; average of 7 strip trials, Wis. 2006, 110 g pyraclostrobin per ha, MILK 2006 calculation",1815 kg/t
same,"Milk, % Difference to Untreated","[2]; Example 4.1, hybrid DS93VT3",+9.6%
same,"Calculated milk production, Milk (kg/t)","[2]; Example 4.1, hybrid DS93VT3",1608 kg/t
same,"Milk, % Difference to Untreated","[2]; Example 4.2, hybrid S4900VT",+17.5%
same,"Calculated milk production, Milk (kg/t)","[2]; Example 4.2, hybrid S4900VT",1581 kg/t
same,"Milk, % Difference to Untreated","[2]; Example 4.3, hybrid 3114VT3",+7.1%
same,"Calculated milk production, Milk (kg/t)","[2]; Example 4.3, hybrid 3114VT3",1648 kg/t
same,"Milk, % Difference to Untreated","[2]; Example 4.4, hybrid 491VT3",+10.9%
same,"Calculated milk production, Milk (kg/t)","[2]; Example 4.4, hybrid 491VT3",1643 kg/t
same,"Milk, % Difference to Untreated",[2]; [7],+22.0%
same,"Calculated milk production, Milk (kg/t)",[2]; [7],1549 kg/t
same,"Milk, % Difference to Untreated","[2]; Example 4.6, hybrid DS93VT3",+20.9%
same,"Calculated milk production, Milk (kg/t)","[2]; Example 4.6, hybrid DS93VT3",1600 kg/t
same,"Milk, % Difference to Untreated","[2]; Example 4.7, hybrid DKC48-37",+8.8%
same,"Calculated milk production, Milk (kg/t)","[2]; Example 4.7, hybrid DKC48-37",1684 kg/t
same,"Milk, % Difference to Untreated","[2]; Example 4.8, hybrid DS93VT3",+8.3%
same,"Calculated milk production, Milk (kg/t)","[2]; Example 4.8, hybrid DS93VT3",1632 kg/t
same,"milk production per ton of harvested corn biomass, result in words",[2]; across the eight tested different corn hybrids,improves the milk production per ton of harvested corn biomass
same,"% CP, % Difference to Untreated",[3]; [8],+6.0%
same,"% NDFD, % Difference to Untreated",[3]; [8],+3.9%
same,"% Starch, % Difference to Untreated",[3]; [8],+10.2%
same,"Milk (kg/t), % Difference to Untreated",[3]; [8],+5.9%
same,"TDN % of DM, % Difference to Untreated",[3]; [8],+3.6%
same,"% NDF, % Difference to Untreated","[3]; MD 2006, vs untreated part of field, decrease means more energy content",−4.8%
same,in vitro 48-hour digestible NDF expressed as percent of NDF (% NDFD),[3]; [9],60.6%
same,neutral detergent fiber content (% NDF),[3]; [9],45.9%
same,starch content (% Starch),[3]; [9],28.2%
same,total digestible nutrients as percent of dry matter (TDN % of DM),[3]; [9],70.0%
same,calculated value for milk produced per ton of silage (Milk (kg/t)),"[3]; average of 16 strip trials, MD 2006, 110 g pyraclostrobin per ha, MILK 2006 calculation",1730 kg/t
same,crude protein content (% CP),"[3]; average of 16 strip trials, Queen Ann County, MD, 2006, Headline 0.44 L/ha (110 g pyraclostrobin per ha) at tassel emergence",7.1%
same,"% CP, % Difference to Untreated",[4]; [10],+6.0%
same,"% Dry Matter, % Difference to Untreated",[4]; [10],−2.2%
same,"% NDFD, % Difference to Untreated",[4]; [10],+19.3%
same,"% Starch, % Difference to Untreated",[4]; [10],+15.3%
same,"Milk (kg/t), % Difference to Untreated",[4]; [10],+21.2%
same,"% NDF, % Difference to Untreated","[4]; N.Y. 2006, vs untreated part of field, decrease means more energy content",−16.8%
same,crude protein content (% CP),[4]; [11],6.52%
same,in vitro 48-hour digestible NDF expressed as percent of NDF (% NDFD),[4]; [11],51.30%
same,neutral detergent fiber content (% NDF),[4]; [11],38.18%
same,starch content (% Starch),[4]; [11],42.42%
same,calculated value for milk produced per ton of silage (Milk (kg/t)),"[4]; average of 2 strip trials, N.Y. 2006, 110 g pyraclostrobin per ha, MILK 2006 calculation",1653 kg/t
same,dry matter content (% Dry Matter),"[4]; average of 2 strip trials, Waterloo, N.Y., 2006, 110 g pyraclostrobin per ha at tassel emergence",36.45%
